{"source": "patent US11857544B2", "about": "“Composition or method including (t)ew-7197 for treating or preventing corneal endothelial diseases” (THE DOSHISHA, priority 2017, dated 2024)", "key": {"[1]": {"test_system": "iFECD", "assay": "Cell survival rate (Cell Titer-Glo Luminescent Cell Viability Assay)", "format": "cell-based, human", "protocol": "were seeded on a 96-well plate at a ratio of 3×10^3 cells per well, and cultured until reaching confluence at 37° C. (5% CO2). DMEM+10% FBS+1% P/S was used as the medium. After 24 hours, the medium was removed. SB431542 (WAKO, 192-16541) and EW-7197 (Selleck Chemicals, 57530) were added so that the final concentration would each be 0.01, 0.1, 1, or 10 μM, and the medium was cultured for 48 hours. DMEM+2% FBS+1% P/S was used as the medium. After 24 hours, the cell morphology was observed under a phase contrast microscope. After observation, the cell survival rate was analyzed using Cell Titer-Glo Luminescent Cell Viability Assay by the following procedures. The medium was discarded so that the amount would be 50 μl per well, and Cell Titer-Glo Luminescent Cell Viability Assay solution (Promega, G7572) was added at 50 μl/well so that the ratio to the medium would be 1:1. The process was hereinafter conducted without exposure to light. The mixture was mixed thoroughly using a shaker for 2 minutes at about 120 min^-1, and incubated for 10 minutes. After the incubation, 80 μl was transferred to an Assay plate (Corning, 3912, Assay plate 96 well, white polystyrene), and absorbance was measured using a GloMax-Multi Detection System (Promega, E7051)."}, "[2]": {"test_system": "immortalized human corneal endothelial cells from a Fuchs' endothelial corneal dystrophy patient (iFECD)", "assay": "Suppression of TGF-β-induced corneal endothelial cell disorder, observed under a phase contrast microscope", "format": "cell-based", "details": "for effect of suppressing corneal endothelial cell disorder: Example 1, iFECD, 24 h pretreatment then 10 ng/ml TGF-β 24 h; for effect of suppressing corneal endothelial cell disorders: Example 2, iFECD + TGF-β", "protocol": "The medium was removed from a culture dish culturing immortalized human corneal endothelial cells from a Fuchs' endothelial corneal dystrophy patient (iFECD), and 1×PBS(-) preheated to 37° C. was added and washed. This was repeated twice. 1×PBS(-) was added again and the medium was incubated for 5 minutes at 37° C. (5% CO2). After removing the PBS(-), 0.05% Trypsin-EDTA (Nacalai Tesque, 32778-34) was added and incubated for 5 minutes at 37° C. (5% CO2). The medium was then suspended and centrifuged for 3 minutes at 1500 rpm to retrieve cells. DMEM (Nacalai Tesque, 08456-36)+10% FBS (Biowest, S1820-500)+1% P/S (Nacalai Tesque, 26252-94) was used as the medium. The immortalized human corneal endothelial cells from a Fuchs' endothelial corneal dystrophy patient (iFECD) were seeded on a 12-well plate at a ratio of 8.0×10^4 cells per well and cultured for 24 hours at 37° C. (5% CO2). DMEM+10% FBS+1% P/S was used as the medium. After 24 hours, the medium was exchanged and cultured again for 24 hours. DMEM+2% FBS+1% P/S was used as the medium. After 24 hours, the medium was removed. 10 ng/ml of Transforming Growth Factor-132 Human recombinant (WAKO, 200-19911) was added, and the medium was cultured for 24 hours. DMEM+2% FBS+1% P/S was used as the medium. After 24 hours, the cell morphology and apoptosis were observed under a phase contrast microscope. After […] were seeded on a 12-well plate and cultured for 24 hours, the medium was removed. SB431542 (WAKO, 192-16541) and EW-7197 (Selleck Chemicals, 57530) were added so that the final concentration would each be 0.1, 0.3, 1, 3, or 10 μM, and the medium was cultured for 24 hours. DMEM+2% FBS+1% P/S was used as the medium. After 24 hours, the medium was removed. 10 ng/ml of Transforming Growth Factor-132 Human recombinant (WAKO, 200-19911) as well as SB431542 and EW-7197 were added so that the final concentration would each be 0.1, 0.3, 1, 3, or 10 μM, and the medium was cultured for 24 hours. DMEM+2% FBS+1% P/S was used as the medium. After 24 hours, the cell morphology and apoptosis were observed under a phase contrast microscope. After […] were seeded on a 12-well plate at a ratio of 7.0×10^4 cells and cultured for 24 hours, the medium was removed. EW-7197 (Selleck Chemicals, 57530) was added so that the final concentration would be 0.001, 0.003, 0.01, 0.03, 0.1, 0.3, 1, 3, 10, or 30 μM, and the medium was cultured for 24 hours. DMEM+2% FBS+1% P/S was used as the medium. After 24 hours, the medium was removed. 10 ng/ml of Transforming Growth Factor-132 Human recombinant (WAKO, 200-19911) and EW-7197 were added so that the final concentration would be 0.001, 0.003, 0.01, 0.03, 0.1, 0.3, 1, 3, 10, or 30 μM, and the medium was cultured for 24 hours. DMEM+2% FBS+1% P/S was used as the medium. After 24 hours, the cell morphology and apoptosis were observed under a phase contrast microscope."}}, "data": [{"smiles": "Cc1cccc(-c2[nH]c(CNc3ccccc3F)nc2-c2ccc3ncnn3c2)n1", "note": "[EW-7197, N-((4-([1,2,4]triazolo[1,5-a]pyridin-6-yl)-5-(6-methylpyridin-2-yl)-1H-imidazol-2-yl)methyl)-2-fluoroaniline]", "values": [{"measurement": "cell survival rate compared to a control group", "setting": "[1]; iFECD, all concentrations of 0.01, 0.1, 1, and 10 μM, 48 hours", "value": "a significant difference was not found"}, {"measurement": "toxicity to cells in a cell survival rate test", "setting": "[1]; summary statement", "value": "hardly found"}, {"measurement": "effect of suppressing corneal endothelial cell disorder", "setting": "[2]; compound at 3 μM and 10 μM", "value": "confirmed"}, {"measurement": "effect of suppressing corneal endothelial cell disorder", "setting": "[2]; compound at 0.1, 0.3, and 1 μM", "value": "effectively suppressed"}, {"measurement": "effect of suppressing corneal endothelial cell disorders", "setting": "[2]; compound at 3 μM and 10 μM", "value": "effectively suppressed"}, {"measurement": "effect of suppressing corneal endothelial cell disorders", "setting": "[2]; compound at 0.03, 0.1, 0.3, and 1 μM", "value": "particularly excellent effect of suppressing corneal endothelial cell disorders"}, {"measurement": "effect of suppressing corneal endothelial disorders", "setting": "[2]; summary statement, at a low concentration of 0.03 μM", "value": "very potent effect of suppressing corneal endothelial disorders"}]}]}
